Assay: Human HepG2 cell viability assay in 384 well format
Format: toxicity, cell-based
Parameters: dose 125 nL, time 70.5 hour; cytotoxicity at 70.5 h: concentration not given beside the values
Settings: HepG2 cells, read-out: Inhibition

Row | Compound | cytotoxicity at 70.5 h
1 | CCOc1cc(C)nc(N2CCN(C(=O)c3cc[nH]n3)CC2)n1 | -3.5%
2 | Cc1noc(C2CCC3(CCN(C(=O)c4cc(C5CC5)on4)CC3)O2)n1 (configuration not stated) | -0.565%
3 | CN1CCN(Cc2nnc(C3CCN(C(CO)CO)CC3)n2C)CC1 | -23.4%
4 | CNC(=O)c1cc2c(nc1NCC(C)C)CCN(S(=O)(=O)N(C)C)CC2 | -5.52%
5 | c1ccc(N2CCC(OCC3CCCCO3)CC2)nc1 (configuration not stated) | 0.314%
6 | CCOc1cc([C@H]2N[C@@H](c3nc(C)cs3)Cc3ccsc32)ccc1OC | -6.01%
7 | COc1cc(CNCc2ccnc(N3CCCC3)c2)cc(OC)c1 | 1.37%
8 | CC(=O)Nc1nc(C(=O)N2CCCC2c2noc(C3CC3)n2)cs1 (configuration not stated) | -3.64%
9 | O=C1NCC2(CCCN(C(=O)c3ccc4c(c3)CCO4)C2)O1 (configuration not stated) | -4.91%
10 | Cc1cccc(C(=O)N2CCCC(Cc3cncc4ccccc34)C2)n1 (configuration not stated) | -0.949%
11 | CC(C)OCCCNC(=O)CS(=O)(=O)Cc1ccc(C(C)(C)C)cc1 | -5.34%
12 | CNC(=O)NC(=O)CSc1ccc2c(c1)CCC2 | -5.43%
13 | CCn1cc(NC(=O)NCc2ccc(CN3CCOCC3)cc2)cn1 | -6.5%
14 | CC(NCc1cnc(N2CCOCC2)s1)c1ccc(Cl)s1 (configuration not stated) | -7.8%
15 | CC(NC(=O)NC1CCN(Cc2ccncc2)CC1)c1ccc(F)cc1 (configuration not stated) | -13.2%
16 | O=C(NCc1ccc2c(c1)OCO2)c1ccccc1C1CCNC1 (configuration not stated) | 38%
17 | CCCN1CCCN(C(=O)c2oc(C)nc2C)CC1 | 30.9%
18 | CC(NC1(CNC(=O)OC(C)(C)C)CCOCC1)c1ccccc1 (configuration not stated) | -5.89%
19 | CCn1cc(CNC(=O)CCn2ncc3c(Cl)cccc32)cn1 | 17.5%

Row | Compound | cytotoxicity at 70.5 h
20 | Cc1ncc(CNC(=O)NCC(C)Oc2ccccc2F)s1 (configuration not stated) | -3.22%
21 | CC(C)(C)c1ncc(CNc2ccccc2SCCC(N)=O)s1 | 3.11%
22 | O=C(CN1CC(c2ccccc2)CC1=O)NCc1cc2n(n1)CCNC2 (configuration not stated) | -8.02%
23 | Cc1nccc([C@@H]2C[C@@H]3CCN(Cc4c(C)noc4C)C[C@H]3O2)n1 | -10.7%
24 | Cn1ccc(C(=O)NCC2(O)CCN(c3cnccn3)C2)n1 (configuration not stated) | -1.53%
25 | CN(C)CC(=O)N1Cc2cc(-c3cc[nH]n3)ccc2C1c1cnco1 (configuration not stated) | -1.64%
26 | COCc1nc(N(C)CCSc2ccccc2)c2cnn(C)c2n1 | -5.78%
27 | Cc1ccc(C(=O)Nc2ccc3c(c2)N(C)CCN(C)C3)c(=O)[nH]1 | -7.32%
28 | CC(C)c1nc(CN(C)C(=O)CNC(N)=O)cs1 | -6.72%
29 | Cc1csc(C2CCCCN2C(=O)c2cn[nH]c2C)n1 (configuration not stated) | 16.7%
30 | COC(=O)CNC(=O)c1ccn(-c2ccc(Cl)c(Cl)c2)n1 | -2.3%
31 | Cc1[nH]ccc1C(=O)N1CCC(c2nnc(Cn3cccn3)n2C)CC1 | -0.908%
32 | COc1cccc(CC(=O)N2CCCSCC2CN2CCCC2)c1 (configuration not stated) | -3.04%
33 | CCC[C@@H]1CN(Cc2cnc(-c3cccs3)nc2)C[C@H]1C(=O)O | -0.697%
34 | CS(=O)(=O)N1CCn2c(C(=O)N3CCOCC3)cnc2C1 | -0.596%
35 | CN(C1CCN(c2ccccn2)CC1)S(=O)(=O)c1cccs1 | -8.7%
36 | Cc1nc(CC(=O)N2CCOC(c3nc(C(C)(C)C)n[nH]3)C2)cs1 (configuration not stated) | 20.6%
37 | COCC1CN(C(C)=O)CCN(c2cc(C)ncn2)C1 (configuration not stated) | 10.4%
38 | CN(CCn1ccc2ccccc21)C(=O)CS(C)(=O)=O | 18%

Row | Compound | cytotoxicity at 70.5 h
39 | CC(=O)N(Cc1ncc(C(C)C)o1)C1CCN(Cc2ccno2)C1 (configuration not stated) | 1.29%
40 | Cn1cc(C2=CCN(CCC(=O)NCc3ccc(Cl)cc3)CC2)cn1 | -2.89%
41 | CCn1cc(NC(=O)NCC(C)N2CCCC2)cn1 (configuration not stated) | 22.1%
42 | O=C(NCCn1nc(C2CCNC2)c2cccnc21)C1CCC1 (configuration not stated) | 2.22%
43 | O=C(NCCc1nccs1)c1n[nH]c2c1CCC2 | -11.1%
44 | Cn1cccc1C(=O)N1CCC2(CC1)CN(c1cncnc1)C(=O)CO2 | 8.12%
45 | CN(CCN1CCOCC1)C(=O)CCCOCCc1ccccc1 | 13.1%
46 | Cc1cn2c(n1)CCC(NC(=O)c1cc(Br)cn1C)C2 (configuration not stated) | 1.7%
47 | O=C(NCc1ccncc1)N1CC(Cc2ccccc2F)C1 | -5.27%
48 | COC(=O)c1ccoc1CN(C)Cc1ccccc1 | -0.994%
49 | NC(=O)CCn1ccc(NC(=O)c2ccc(Br)o2)n1 | -5.23%
50 | O[C@@H]1CN(c2nc3ccccc3s2)CC[C@H]1c1ccc2c(c1)OCO2 | -3.71%
51 | CC(C)c1nnc(CNc2nc(-c3cccnc3)nc3c2CCC3)n1C | -1.97%
52 | Cn1ccnc1CCNC(=O)NCCC1CCCCO1 (configuration not stated) | -2.69%
53 | CN(CCOc1cccc(S(C)(=O)=O)c1)c1ccccc1 | -2.26%
54 | CN(Cc1nnc(C2CC2)n1C)S(=O)(=O)c1ccccc1C#N | -15.5%
55 | N#Cc1c(F)cccc1N1CCCC(C(=O)Nc2nncs2)C1 (configuration not stated) | -16.9%
56 | CCOc1ccc(C2CC(=O)NCc3nc(N)sc32)cc1CO (configuration not stated) | -6.2%
57 | CCC(C)(NCc1cccc(NC(C)=O)c1)c1nc(C)cs1 (configuration not stated) | -0.722%

— ChEMBL document CHEMBL3507680, “University of Dundee, Gates Library screen for HepG2 cell viability”
